Assay results: patent publication US20240368150A1 (Hoffmann-La Roche Inc., priority 2021, published 2024)
Like-named read-outs stand apart in the source and are kept apart here.

Tests used:
primary human T-cells [1] = system: primary human T-cells
primary human T-cells [2] = assay: Proliferation assay after 5 days (CellTiter-Glo, CD3 stimulation; PBS counter screen); type: cell-based; conditions: CD3 stimulation; for Emax / Emax proliferation (% activation): 5 days, normalized to reference compound A1 as stimulator control = 100%, DMSO neutral control; for Emax: read-out: Emax proliferation (% activation); for EC50: primary human T-cells, CellTiter-Glo after 5 days, EC50 of fitted sigmoidal curve, read-out: Tcell Proliferation CD3 EC50
Method: Compounds are then added (see next section) to medium only plates.
Cells are assessed for proliferation 5 days later by measuring […] using CellTiterGlo (Promega).
After 5 days, for detection of ATP which is directly proportional to the number of cells present per well, the CellTiter-Glo® 2.0 Reagent is used. After visual control for toxicity or precipitations of the tested compounds, the plates are equilibrated to room temperature for 45 minutes. CellTiter-Glo® 2.0 Reagent is equilibrated to room temperature as well. After equilibration, an equal amount of CellTiter-Glo reagent is added to the cells (80 μl/well) with an electronic multichannel pipette. Plates are placed on a rocking platform for 15 minutes at room temperature. After incubation, the bottom of the plates is sealed with backing tape. Luminescence is measured with PHERAstar FSX (interval time 0.5 sec, gain 3000, focal height 15 mm) and exported as CSV file for analysis in Genedata screener.
Compounds which activate unstimulated cells (see IL2 measurements) or compounds which negatively affected viability were flagged.

EC50 (primary human T-cells [1]) | SMILES | Emax (primary human T-cells [2]; Homo sapiens, T-cell, 120 h) | EC50 (primary human T-cells [2]; Homo sapiens, T-cell, 120 h) | Emax proliferation (% activation) (primary human T-cells [2]) | EC50 (primary human T-cells [2])
39.8 nM | CC(C)(C)n1nnc(-c2cc3c(cc2F)S(=O)(=O)C[C@H](N)C(=O)N3Cc2ccc(OC(F)(F)F)cc2)n1 [Example 30, (3R)-3-amino-7-(2-tert-butyltetrazol-5-yl)-8-fluoro-1,1-dioxo-5-[[4-(trifluoromethoxy)phenyl]methyl]-2,3-dihydro-1λ^6,5-benzothiazepin-4-one] | 117% | 43.5 nM | – | –
344 nM | CC(C)(C)n1nnc(-c2ccc3c(c2)N(Cc2ccc(OC(F)(F)F)cc2)C(=O)[C@@H](N)CS3(=O)=O)n1 [Example 31, (3R)-3-amino-7-(2-tert-butyltetrazol-5-yl)-1,1-dioxo-5-[[4-(trifluoromethoxy)phenyl]methyl]-2,3-dihydro-1λ^6,5-benzothiazepin-4-one] | 97% | 276 nM | – | –
7630 nM | CC(C)(C)n1nnc(-c2cc3c(cc2F)S(=O)(=O)C[C@H](N)C(=O)N3Cc2ccc(F)cc2)n1 [Example 32] | 101% | 808 nM | – | –
5280 nM | CC(C)(C)n1nnc(-c2cc3c(cc2F)S(=O)(=O)C[C@H](N)C(=O)N3Cc2ccc(OCC3CCOCC3)cc2)n1 [Example 33, (3R)-3-amino-7-(2-tert-butyltetrazol-5-yl)-8-fluoro-1,1-dioxo-5-[[4-(tetrahydropyran-4-ylmethoxy)phenyl]methyl]-2,3-dihydro-1λ^6,5-benzothiazepin-4-one] | 104% | 1900 nM | – | –
5870 nM | CC(C)(C)n1nnc(-c2cc3c(cc2F)[S+]([O-])C[C@H](N)C(=O)N3Cc2ccc(Cl)cc2)n1 (stereo partly drawn) [Example 34, (3R)-3-amino-7-(2-tert-butyltetrazol-5-yl)-5-[(4-chlorophenyl)methyl]-8-fluoro-1-oxo-2,3-dihydro-1λ^4,5-benzothiazepin-4-one] | – | – | 100 % activation | 2800 nM
7130 nM | CC(C)(C)n1nnc(-c2cc3c(cc2F)[S+]([O-])C[C@H](N)C(=O)N3Cc2ccc(Cl)cc2)n1 (stereo partly drawn) [Example 35, (3R)-3-amino-7-(2-tert-butyltetrazol-5-yl)-5-[(4-chlorophenyl)methyl]-8-fluoro-1-oxo-2,3-dihydro-1λ^4,5-benzothiazepin-4-one] | – | – | 125 % activation | 1240 nM
> 20000 nM | N[C@H]1CS(=O)(=O)c2cc(F)c(-c3ccn[nH]3)cc2N(Cc2ccc(Cl)cc2)C1=O [Example 37, (3R)-3-amino-5-[(4-chlorophenyl)methyl]-8-fluoro-1,1-dioxo-7-(1H-pyrazol-5-yl)-2,3-dihydro-1λ^6,5-benzothiazepin-4-one] | 57% | 15300 nM | – | –
> 20000 nM | CCc1nc(-c2cc3c(cc2F)S(=O)(=O)C[C@H](N)C(=O)N3Cc2ccc(Cl)cc2)n[nH]1 [Example 38, (3R)-3-amino-5-[(4-chlorophenyl)methyl]-7-(5-ethyl-1H-1,2,4-triazol-3-yl)-8-fluoro-1,1-dioxo-2,3-dihydro-1λ^6,5-benzothiazepin-4-one] | 50% | > 20000 nM | – | –
842 nM | N[C@H]1CS(=O)(=O)c2ccc(-c3nc(CC(F)(F)F)no3)nc2N(Cc2ccc(Cl)cc2)C1=O [Example 39, (3R)-3-amino-5-[(4-chlorophenyl)methyl]-1,1-dioxo-7-[3-(2,2,2-trifluoroethyl)-1,2,4-oxadiazol-5-yl]-2,3-dihydropyrido[3,2-b][1,4]thiazepin-4-one] | 161% | 486 nM | – | –
2860 nM | CC(C)(F)c1nc(-c2cc3c(cc2F)S(=O)(=O)C[C@H](N)C(=O)N3Cc2ccc(Cl)cc2)no1 [Example 47, (3R)-3-amino-5-[(4-chlorophenyl)methyl]-8-fluoro-7-[5-(1-fluoro-1-methyl-ethyl)-1,2,4-oxadiazol-3-yl]-1,1-dioxo-2,3-dihydro-1λ^6,5-benzothiazepin-4-one] | 142% | 561 nM | – | –
974 nM | CC(C)(C)c1cc(-c2cc3c(cc2F)S(=O)(=O)C[C@H](N)C(=O)N3Cc2ccc(Cl)cc2)on1 [Example 52, (3R)-3-amino-7-(3-tert-butylisoxazol-5-yl)-5-[(4-chlorophenyl)methyl]-8-fluoro-1,1-dioxo-2,3-dihydro-1λ^6,5-benzothiazepin-4-one] | 133% | 1090 nM | – | –
< 162 nM | N[C@H]1CS(=O)(=O)c2cc(F)c(-c3nnc(C4CCCCC4(F)F)o3)cc2N(Cc2ccc(OC(F)(F)F)cc2)C1=O (stereo partly drawn) [Example 53, (3R)-3-amino-7-[5-(2,2-difluorocyclohexyl)-1,3,4-oxadiazol-2-yl]-8-fluoro-1,1-dioxo-5-[[4-(trifluoromethoxy)phenyl]methyl]-2,3-dihydro-1λ^6,5-benzothiazepin-4-one] | 243% | < 162 nM | – | –
53.2 nM | N[C@H]1CS(=O)(=O)c2cc(F)c(-c3nnc(C4CCCC(F)(F)C4)o3)cc2N(Cc2ccc(OC(F)(F)F)cc2)C1=O (stereo partly drawn) [Example 55, (3R)-3-Amino-7-[5-(3,3-difluorocyclohexyl)-1,3,4-oxadiazol-2-yl]-8-fluoro-1,1-dioxo-5-[[4-(trifluoromethoxy)phenyl]methyl]-2,3-dihydro-1λ^6,5-benzothiazepin-4-one] | 282% | 50.7 nM | – | –
220 nM | NC(c1nnc(-c2cc3c(cc2F)S(=O)(=O)C[C@H](N)C(=O)N3Cc2ccc(OC(F)(F)F)cc2)o1)C(F)(F)F (stereo partly drawn) [Example 58, (3R)-3-amino-7-[5-(1-amino-2,2,2-trifluoro-ethyl)-1,3,4-oxadiazol-2-yl]-8-fluoro-1,1-dioxo-5-[[4-(trifluoromethoxy)phenyl]methyl]-2,3-dihydro-1λ^6,5-benzothiazepin-4-one] | 126% | 684 nM | – | –
79.9 nM | CC(C)(C#N)c1nnc(-c2cc3c(cc2F)S(=O)(=O)C[C@H](N)C(=O)N3Cc2ccc(OC(F)(F)F)cc2)o1 [Example 59] | 94% | 54.5 nM | – | –
535 nM | Cc1nnc(-c2nnc(-c3cc4c(cc3F)S(=O)(=O)C[C@H](N)C(=O)N4Cc3ccc(OC(F)(F)F)cc3)o2)o1 [Example 60, (3R)-3-amino-8-fluoro-7-[5-(5-methyl-1,3,4-oxadiazol-2-yl)-1,3,4-oxadiazol-2-yl]-1,1-dioxo-5-[[4-(trifluoromethoxy)phenyl]methyl]-2,3-dihydro-1λ^6,5-benzothiazepin-4-one] | 110% | 320 nM | – | –
1910 nM | CN[C@@H](C)C(=O)N[C@H]1CS(=O)(=O)c2cc(F)c(-c3nnc(CC(F)(F)F)o3)cc2N(Cc2ccc(OC(F)(F)F)cc2)C1=O [Example 61, (2S)—N-[(3R)-8-fluoro-1,1,4-trioxo-7-[5-(2,2,2-trifluoroethyl)-1,3,4-oxadiazol-2-yl]-5-[[4-(trifluoromethoxy)phenyl]methyl]-2,3-dihydro-1λ^6,5-benzothiazepin-3-yl]-2-(methylamino)propanamide] | 144% | 625 nM | – | –
4350 nM | CC(C)(CN1CCCC1=O)c1nnc(-c2cc3c(cc2F)S(=O)(=O)C[C@H](N)C(=O)N3Cc2ccc(Cl)cc2)o1 [Example 64, (3R)-3-amino-5-[(4-chlorophenyl)methyl]-7-[5-[1,1-dimethyl-2-(2-oxopyrrolidin-1-yl)ethyl]-1,3,4-oxadiazol-2-yl]-8-fluoro-1,1-dioxo-2,3-dihydro-1λ^6,5-benzothiazepin-4-one] | 36% | > 10000 nM | – | –
3850 nM | N[C@H]1CS(=O)(=O)c2cc(F)c(-c3nnc(C4(CO)CC4)o3)cc2N(Cc2ccc(Cl)cc2)C1=O [Example 65, (3R)-3-amino-5-[(4-chlorophenyl)methyl]-8-fluoro-7-[5-[1-(hydroxymethyl)cyclopropyl]-1,3,4-oxadiazol-2-yl]-1,1-dioxo-2,3-dihydro-1λ^6,5-benzothiazepin-4-one] | 77% | 1060 nM | – | –
1330 nM | CC(C)(CN1CCCCC1=O)c1nnc(-c2cc3c(cc2F)S(=O)(=O)C[C@H](N)C(=O)N3Cc2ccc(Cl)cc2)o1 [Example 66, (3R)-3-amino-5-[(4-chlorophenyl)methyl]-7-[5-[1,1-dimethyl-2-(2-oxo-1-piperidyl)ethyl]-1,3,4-oxadiazol-2-yl]-8-fluoro-1,1-dioxo-2,3-dihydro-1λ^6,5-benzothiazepin-4-one] | 112% | 2070 nM | – | –
199 nM | N[C@H]1CS(=O)(=O)c2cc(F)c(-c3nnc(CCC(F)(F)F)o3)cc2N(Cc2ccc(Cl)cc2)C1=O [Example 67, (3R)-3-Amino-5-[(4-chlorophenyl)methyl]-8-fluoro-1,1-dioxo-7-[5-(3,3,3-trifluoropropyl)-1,3,4-oxadiazol-2-yl]-2,3-dihydro-1λ^6,5-benzothiazepin-4-one] | 165% | 112 nM | – | –
> 20000 nM | N[C@H]1CS(=O)(=O)c2cc(F)c(-c3nnc(CC(F)(F)F)o3)cc2N(Cc2ccc(Cl)cc2)C1=O [Example 68, (3R)-3-Amino-5-[(4-chlorophenyl)methyl]-8-fluoro-1,1-dioxo-7-[5-(2,2,2-trifluoroethyl)-1,3,4-oxadiazol-2-yl]-2,3-dihydro-1λ^6,5-benzothiazepin-4-one] | 91% | 5140 nM | – | –
